Test results as given in US9820481B2, “Encapsulation of active ingredients and method of making” (Arch Chemicals, Inc., priority 2013, dated 2017).

Experiment: Degradation temperature by thermal gravimetric analysis (TGA) or differential scanning calorimetry (DSC)
Format: physicochemical
Description: The degradation temperature was determined by thermal gravimetric analysis (TGA) or differential scanning calorimetry (DSC).

Substance: zinc pyrithione [A (comp)]
- Degradation Temp: 265 °C
